Assay [1] has as its target T1, cytoplasmic domain of the human VEGF receptor (VEGFR-2) (Homo sapiens, UniProt P35968).
T1 construct: The cytoplasmic domain of the human VEGF receptor (VEGFR-2) was expressed as a Histidine-tagged fusion protein; Histidine tag
The assay can be described thus: KDR Assay. The class given is biochemical. To be noted: His-VEGFR-2; 3.6 μM ATP. The essentials: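 IC50 taken from blank-corrected OD492 curves of an anti-phosphotyrosine peroxidase ELISA. Reaction: 10 min, 25 °C, 3.6 μM ATP, 50 mM Hepes pH 7.4 with 20 mM MgCl2, 0.1 mM MnCl2 and 5% DMSO, on poly-Glu-Tyr-coated wells, started with insect-cell-expressed His-VEGFR-2 cytoplasmic domain.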

In assay [2] the test system is VEGF-induced EBD extravasation. The assay can be described thus: VEGF-induced Dermal Extravasation in Guinea Pig (Miles Assay). Particulars: corn oil, oral. The class given is in vivo. As for the experimental part: VEGF-induced Dermal Extravasation in Guinea Pig (Miles Assay). Male Hartley guinea pigs (300-600 g) were anesthetized with isofluorane, sheared, and given a single dose of drug or the respective vehicle. The guinea pigs were dosed orally unless indicated otherwise in Table 3. Ten minutes prior to the end of drug treatment, guinea pigs were anesthetized with isofluorane, and 0.5% Evans blue dye (EBD) in PBS (13-15 mg/kg dose of EBD) was injected intravenously. After 5 minutes, triplicate intradermal injections of 100 ng rhVEGF165 in 100 μl PBS and of 100 μl PBS alone were administered on the flank. After 20 minutes, each animal was euthanized with Pentosol, and the skin containing the intradermal injection sites was removed for image analysis.
Using an analog video camera coupled to a PC, an image of each trans-illuminated skin sample was captured, and the integrated optical density of each injection site was measured using ImagePro 4. For each skin sample, the difference between the mean optical density of the VEGF sites and mean optical density of the PBS sites is the measure of VEGF-induced EBD extravasation in that animal. These measured values were averaged per study group to determine the mean VEGF-induced EBD extravasation for each experimental condition, and the group means were then compared to assess inhibition of VEGF-induced EBD extravasation in the drug-treated groups relative to the vehicle-treated controls.
To determine the dose required for 50% inhibition (ID50), the percent inhibition data was plotted as a function of oral dose, using the ‘best-fit’ analysis within MicroSoft Excel software. The ID50 value was verified visually by using the plotted data (horizontal line from 50% y value, at intersection with best-fit line drop vertical line to x axis (dose)).

Assay [3] deals with VEGF induced increases in intracellular calcium levels in HUVEC (human umbilical vein endothelial cells). The assay can be described thus: VEGF Stimulated Ca++ Signal in vitro (FLIPR). The class given is cell-based. Particulars: 0.01 to 10.0 μM, VEGF 5 ng/mL. Put shortly: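 IC50 values derive from % inhibition of the VEGF (5 ng/mL) calcium response, taken as max-min fluorescence at 516 nm in Fluo-4-loaded HUVEC. Compounds (0.1% DMSO final) were added 30 min before stimulation, at 10 μM or across 0.01–10.0 μM.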

For orientation: IC50 means the concentration that inhibits the measured activity by half.

T1 sequence (P35968 786-1356): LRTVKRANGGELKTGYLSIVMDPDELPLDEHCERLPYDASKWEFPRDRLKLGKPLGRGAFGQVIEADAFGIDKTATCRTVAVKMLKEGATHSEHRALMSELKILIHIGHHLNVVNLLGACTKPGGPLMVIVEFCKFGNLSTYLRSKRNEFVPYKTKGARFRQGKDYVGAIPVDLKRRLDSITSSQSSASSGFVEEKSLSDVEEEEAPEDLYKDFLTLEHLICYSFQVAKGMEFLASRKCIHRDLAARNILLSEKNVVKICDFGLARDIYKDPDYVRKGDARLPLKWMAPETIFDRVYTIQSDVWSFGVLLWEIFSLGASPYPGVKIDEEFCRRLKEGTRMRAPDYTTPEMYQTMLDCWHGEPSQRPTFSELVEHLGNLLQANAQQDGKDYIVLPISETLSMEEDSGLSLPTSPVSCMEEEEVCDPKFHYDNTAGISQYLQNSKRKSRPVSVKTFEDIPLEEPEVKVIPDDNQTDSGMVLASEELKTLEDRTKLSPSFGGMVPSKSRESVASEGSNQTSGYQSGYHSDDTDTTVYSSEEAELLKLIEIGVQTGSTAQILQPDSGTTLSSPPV

For the molecule `O=C1Nc2cc(F)ccc2C1=CNc1ccc(OCCCCN2CCCCC2)cc1` [Example 247, 6-Fluoro-3-{[4-(4-piperidin-1-yl-butoxy)-phenylamino]-methylene}-1,3-dihydro-indol-2-one], the IC50 in assay [1] is 200 nM. The “Miles Assay % inhibition” value in assay [2] (75 mg/kg) was 45%.
Take `CCN(CC)CCCOc1ccc(NC=C2C(=O)Nc3cccc(C)c32)cc1F` [Example 249, 3-{[4-(3-Diethylamino-propoxy)-3-fluoro-phenylamino]-methylene}-4-methyl-1,3-dihydro-indol-2-one]: the IC50 in assay [1] amounted to 70 nM. Besides, in assay [2] (75 mg/kg), the “Miles Assay % inhibition” value was 29%.
For `CCN(CC)CCCOc1ccc(NC=C2C(=O)Nc3cc(F)ccc32)cc1F` [Example 250, 3-{[4-(3-Diethylamino-propoxy)-3-fluoro-phenylamino]-methylene}-6-fluoro-1,3-dihydro-indol-2-one], in that order: 150 nM and 62%.
In turn, `CCN(CC)CCOc1ccc(NC=C2C(=O)Nc3cc(F)ccc32)cc1` [Example 266, 3-{[4-(2-Diethylamino-ethoxy)-phenylamino]-methylene}-6-fluoro-1,3-dihydro-indol-2-one] came in with an IC50 in assay [1] of 170 nM. In addition, in assay [2] (40 mg/kg), the “Miles Assay % inhibition” value is 82%.
In the case of `CCN(CC)CCCOc1ccc(NC=C2C(=O)Nc3cccc(F)c32)cc1F` [Example 267, 3-{[4-(3-Diethylamino-propoxy)-3-fluoro-phenylamino]-methylene}-4-fluoro-1,3-dihydro-indol-2-one], the IC50 in assay [3] (Homo sapiens) was 1420 nM; in assay [1] it was 230 nM.
As for `COc1cccc(-c2ccc3c(c2)NC(=O)C3=CNc2ccc(N3CCN(C)CC3)cc2)c1` [Example 268, 6-(3-Methoxy-phenyl)-3-{[4-(4-methyl-piperazin-1-yl)-phenylamino]-methylene}-1,3-dihydro-indol-2-one], the IC50 in assay [3] (Homo sapiens) was at least 10000 nM; in assay [1] it was 80 nM.
Consider `COc1cccc(-c2ccc3c(c2)NC(=O)C3=CNc2ccc(N3CCOCC3)cc2)c1` [Example 269, 6-(3-Methoxy-phenyl)-3-{[4-morpholin-4-yl-phenylamino)-methylene]-1,3-dihydro-indol-2-one], for which the IC50 was at least 10000 nM in assay [3] (Homo sapiens) and 1680 nM in assay [1].
Consider `O=C1Nc2cc(F)ccc2C1=CNc1ccc(OCCN2CCCC2)cc1` [Example 271, 6-Fluoro-3-{[4-(2-pyrrolidin-1-yl-ethoxy)-phenylamino]-methylene}-1,3-dihydro-indol-2-one], for which the IC50 in assay [1] was determined as 130 nM. For the same molecule, in assay [2] (40 mg/kg), the “Miles Assay % inhibition” value is on record as 98%.
As to `O=C1Nc2cccc(F)c2C1=CNc1ccc(OCCN2CCCC2)cc1` [Example 273, 4-Fluoro-3-{[4-(2-pyrrolidin-1-yl-ethoxy)-phenylamino]-methylene}-1,3-dihydro-indol-2-one], the IC50 in assay [3] (Homo sapiens) was found to be 1070 nM; in assay [1], 330 nM.
As to `O=C1Nc2ccc(Cl)cc2C1=CNc1ccc(OCCN2CCCC2)cc1` [Example 275, 5-Chloro-3-{[4-(2-pyrrolidin-1-yl-ethoxy)-phenylamino]-methylene}-1,3-dihydro-indol-2-one], the IC50 in assay [3] was 620 nM; in assay [3] (Homo sapiens), at most 1000 nM; in assay [1] it was 130 nM.
As to `COc1cccc(-c2ccc3c(c2)NC(=O)C3=CNc2ccc(OCCCN3CCCCC3)cc2)c1` [Example 276, 6-(3-Methoxy-phenyl)-3-{[4-(3-piperidin-1-yl-propoxy)-phenylamino]-methylene}-1,3-dihydro-indol-2-one], the IC50 in assay [3] (Homo sapiens) is 8810 nM; in assay [1], 220 nM.
`CCN(CC)CCCOc1ccc(NC=C2C(=O)Nc3cc(-c4cccc(OC)c4)ccc32)cc1` [Example 277, 3-{[4-(3-Diethylamino-propoxy)-phenylamino]-methylene}-6-(3-Methoxy-phenyl)-1,3-dihydro-indol-2-one]: the half-maximal inhibitory concentration (IC50) is at least 10000 nM in assay [3] (Homo sapiens) and 250 nM in assay [1].
`CN1CCCC(COc2ccc(NC=C3C(=O)Nc4cccc(F)c43)cc2)C1` (stereo not shown) [Example 281, 4-Fluoro-3-{[4-(1-methyl-piperidin-3-ylmethoxy)-phenylamino]-methylene}-1,3-dihydro-indol-2-one]: the values for the IC50 in assay [3], in assay [3] (Homo sapiens) and in assay [1] were 730 nM, at most 1000 nM and 320 nM, respectively.
For `CN1CCCC(COc2ccc(NC=C3C(=O)Nc4ccc(Cl)cc43)cc2)C1` (stereo not shown) [Example 283, 5-Chloro-3-{[4-(1-methyl-piperidin-3-ylmethoxy)-phenylamino]-methylene}-1,3-dihydro-indol-2-one], the IC50 in assay [3] was 940 nM; in assay [3] (Homo sapiens), at most 1000 nM; in assay [1] it was 150 nM.
Turning to `O=C1Nc2ccc(Cl)cc2C1=CNc1ccc(CCN2CCCCC2)cc1` [Example 285, 5-Chloro-3-{[4-(2-piperidin-1-yl-ethyl)-phenylamino]-methylene}-1,3-dihydro-indol-2-one], the IC50 in assay [3] is 560 nM; in assay [3] (Homo sapiens), at most 1000 nM; in assay [1], 110 nM.
With `O=C1Nc2cccc(F)c2C1=CNc1ccc(CCN2CCCCC2)cc1` [Example 287, 4-Fluoro-3-{[4-(2-piperidin-1-yl-ethyl)-phenylamino]-methylene}-1,3-dihydro-indol-2-one], the IC50 in assay [3] is 620 nM; in assay [3] (Homo sapiens), at most 1000 nM; in assay [1], 110 nM.
Take `O=C1Nc2ccc(Cl)cc2C1=CNc1ccc(CN2CCOCC2)cc1` [Example 291, 5-Chloro-3-[(4-morpholin-4-ylmethyl-phenylamino)-methylene]-1,3-dihydro-indol-2-one]: the IC50 in assay [3] was 660 nM; in assay [3] (Homo sapiens), at most 1000 nM; in assay [1], 210 nM.
Regarding `O=C1Nc2cccc(F)c2C1=CNc1ccc(CN2CCOCC2)cc1` [Example 293, 4-Fluoro-3-[(4-morpholin-4-ylmethyl-phenylamino)-methylene]-1,3-dihydro-indol-2-one], the IC50 was 880 nM in assay [3], at most 1000 nM in assay [3] (Homo sapiens) and 470 nM in assay [1].
For `O=C1Nc2cccc(F)c2C1=CNc1ccc(NCCCN2CCOCC2)cc1` [Example 301, 4-Fluoro-3-{[4-(3-morpholin-4-yl-propylamino)-phenylamino]-methylene}-1,3-dihydro-indol-2-one] the same measures were 770 nM, at most 1000 nM and 270 nM.
In the case of `O=C1Nc2ccccc2C1=CNc1ccc(OCCCN2CCC(F)C2)cc1` (stereo not shown) [Example 305, 3-({4-[3-(3-Fluoro-pyrrolidin-1-yl)-propoxy]-phenylamino}-methylene)-1,3-dihydro-indol-2-one], the IC50 is 550 nM in assay [3], at most 1000 nM in assay [3] (Homo sapiens) and 310 nM in assay [1].
For `O=C1Nc2ccc(Cl)cc2C1=CNc1ccc(CCN2CCOCC2)cc1` [Example 307, 5-Chloro-3-{[4-(2-morpholin-4-yl-ethyl)-phenylamino]-methylene}-1,3-dihydro-indol-2-one] the same measures were 650 nM, at most 1000 nM and 270 nM.
For `O=C1Nc2cccc(F)c2C1=CNc1ccc(CCN2CCOCC2)cc1` [Example 309, 4-Fluoro-3-{[4-(2-morpholin-4-yl-ethyl)-phenylamino]-methylene}-1,3-dihydro-indol-2-one] the same measures were 680 nM, at most 1000 nM and 230 nM.
